Data on 1 compound can be found in patent US20230028224A1, “Novel Topical Therapy” (priority 2019, published 2023).

Molecules are shown by their SMILES.

Test [1] can be described thus: injection of the Supratrochlear nerve followed by SPG block. The test is classed as in vivo. The note with it: bupivacaine 0.5% injected to the Supratrochlear nerve, SPG block subsequently. An excerpt: (§1) Another aspect of the invention is the combination of stimulation of SPG with branches of Trigeminal nerves, or occipital nerves. There is known C-2 and 3 connection with Trigeminal nerve and SPG and likely with C1.

A short description of test [2]: injection of occipital nerves followed by SPG block. The test is classed as in vivo. The note with it: 0.5% injected into occipital nerves, then SPG block.
Excerpt: as §1

Take `CCCCN1CCCCC1C(=O)Nc1c(C)cccc1C` (centres unmarked) [bupivacaine]: the “result of subsequent SPG block” value in test [1] was “better result with SPG block subsequently”. In addition, the headache entry in test [2] is on record as “headache was further decreased with SPG block”.
